# Patent publication US6884577B2, “Methods for screening compounds for estrogenic activity” (The Regents of the University of California, priority 1993, dated 2005)
# What was measured:
# [1] = tested on: ER activation of AP-1 (Coll73-LUC); test: Inhibitor screen: ER transiently transfected with Coll73-LUC in HeLa or HepG2 cells, hormone plus prospective inhibitor; format: cell-based
# Method: (§1) An estrogen receptor (ER) was transiently transfected into either HeLa or HepG2 cells along with an AP-1 responsive reporter gene, Coll73-LUC. The transformed cells were then contacted with antiestrogens or estrogen in combination with prospective inhibitor drugs. […] Luciferase was measured in cell extracts as an indication of AP-1 dependent promoter activity.
# [2] = tested on: HE15 activation of AP-1 activity; test: Inhibitor screen: HE15 (constitutive ER) activation of AP-1 activity; format: cell-based; conditions: HeLa cells
# Method: as §1
# MCF-7 cell = conditions: Braacke et al. 1991; cited from earlier work
# [3] = tested on: human ER at the AP-1 site (collagenase promoter, AP-1-tk), HeLa cells; test: CAT assays of HeLa cells transfected with AP-1 site reporter genes and human ER expression vector; format: cell-based
# Method: Representations, at left, show the human collagenase promoter (shaded) and the consensus AP-1 site. […] CAT activity is normalized to a transfection control with the actin promoter driving expression of βHCG. Single representative experiments are shown, error bars represent standard deviation of triplicate hormone treatments.
# (§2) Cells were maintained and transfected as previously described in Webb et al., supra. […] F9 cells were seeded at 30% confluence upon 1.5 cm dishes and transfected overnight by calcium phosphate coprecipitation with 5 μg reporter gene, 1 μg actin β-HCG, and 1 μg of HEO, 300 ng each of c-jun and c-fos expression vectors. The cells were glycerol shocked and refed in growth medium containing hormone or ethanolic vehicle.
# (§3) CAT assays were carried out as described in Webb et al., except that the cells were harvested one to two days after transfection instead of three. CAT activities were defined as the increase in cpm per hour at room temperature (corrected for background) per 100 μl of cell extract, normalized to production of 100 standard units of βHCG, from a co-transfected reporter gene, actin-HCG. […] Light units were defined as the luciferase activity per 100 μl of cell extract per 100 standard units of βHCG. Relative luciferase activities were calculated with respect to the results that were obtained in the absence of ER and hormone, which was set at 1 unit. For the data presented in Table I triplicate points were determined.
# To further examine the effects of antiestrogens on the AP-1 directed pathway, reporter genes derived from the human collagenase promoter were transfected into HeLa cells.
# ER at classical ERE = test: Reporter genes containing classical EREs (ERE-coll60, ERE-tk) in cells with ER; format: cell-based, human
# Method: FIGS. 2A-2C show antiestrogen stimulation of expression in an intact AP-1 Site, but not at classical EREs. […] Representations, at left, show the human collagenase promoter (shaded) and the consensus AP-1 site. CAT activities were from cells maintained in the absence of hormone or saturating concentrations of ICI 164,384 (ICI, 1 μM), tamoxifen (5 μM) or estradiol ([…]). CAT activity is normalized to a transfection control with the actin promoter driving expression of βHCG. Single representative experiments are shown, error bars represent standard deviation of triplicate hormone treatments.
# All reporter genes described below have been modified by digestion with EcoR I and Ndel to remove a AP-I site in the backbone of pUG. Thus, Coll73 and Coll60 are formerly_Coll73 and_Coll60 (Lopez et al. Mol. Cell. Biol. 13:3042-930 (1993)). Coll73-LUC was constructed by cloning a BamHI/Pvull fragment, that spanned the luciferase transcription unit, from pMG3 into coll73, which had been digested with BamHI and SmaI to remove the CAT transcription unit. EREcoll60 and EREcoll73 was prepared by ligation of a consensus ERE ([…], SEQ ID NO:3), into the HindIII site upstream of coll60 and coll73, respectively. All other reporter genes have been previously described (Webb et al. Mol. Endocrinol. 6:157-16725 (1992): and Lopez et al., supra).
# Cells were maintained and transfected as previously described in Webb et al., supra. Hormones were added two hours after plating in the following concentrations, estradiol 100 nM, ICI 164,384 1 μM, tamoxifen 5 μM, to ensure saturation of the response. F9 cells were seeded at 30% confluence upon 1.5 cm dishes and transfected overnight by calcium phosphate coprecipitation with 5 μg reporter gene, 1 μg actin β-HCG, and 1 μg of HEO, 300 ng each of c-jun and c-fos expression vectors. The cells were glycerol shocked and refed in growth medium containing hormone or ethanolic vehicle. In transient transfections, optimal amounts of HEO were employed and were as follows: HeLa (5 μg); NIH3T3 (1 μg); HepG2 (1 μg); SHM (300 ng); SY5Y (300 ng); CEF (100 ng); CV-1 (3 μg); MDA453 (3 μg); CHO (100 ng) and F9 (1 μg).
# CAT assays were carried out as described in Webb et al., except that the cells were harvested one to two days after transfection instead of three. CAT activities were defined as the increase in cpm per hour at room temperature (corrected for background) per 100 μl of cell extract, normalized to production of 100 standard units of βHCG, from a co-transfected reporter gene, actin-HCG. Luciferase assays were performed as described by Brasier et al. Methods Enzymol 216:386-97 (1992)) on similar extracts that were used for CAT assays. Light units were defined as the luciferase activity per 100 μl of cell extract per 100 standard units of βHCG. Relative luciferase activities were calculated with respect to the results that were obtained in the absence of ER and hormone, which was set at 1 unit. For the data presented in Table I triplicate points were determined. Standard deviations were less than 20%.
# The activity of antiestrogens in the AP-1 pathway was also compared with their activity in the classical pathway. […] A promoter with both an ERE and an AP-1 site (ERE-coll73 FIG. 2C) gave a large estrogen response, but retained some response to antiestrogens. Another control reporter, in which the tk promoter was regulated by a classical ERE (ERE-tk FIG. 2C) was also activated by estrogen, but not by antiestrogens.
# [4] = tested on: ER at classical ERE, ERC1 cells; test: Estrogenic activity screen: CAT reporter gene linked to a classical ERE in ERC1 cells; format: cell-based, human; conditions: ICI 164384 with series 4 compounds
# Method: A library of hydroxystilbene derivatives as shown in FIG. 9 was screened for estrogenic activity in cell culture assays using a CAT reporter gene linked to a classical ERE in ERC1 cells as described in Webb et al., supra. After transient transfection with CAT reporter genes, each hydroxystilbene was added to the cultured ERC 1 cells. ER-regulated response was compared either to treatment with 17β-estradiol as a calibration standard or to treatment with an ethanolic vehicle.
# Dose response experiments were performed on the series 4 compounds over a concentration range of 0-100 μM (FIG. 1).
# [5] = tested on: ER at classical ERE, Ishikawa cells; test: ERE-coll60CAT reporter in Ishikawa cells; format: cell-based
# From the text: Left panel, coll73-CAT response with endogenous ER contrasted with the response of an ERE regulated reporter, ERE-coll60CAT. […] Averages of three individual experiments are shown. […] A single representative experiment with triplicate hormone treatments is shown.
# (§4) To further explore this phenomenon, and to test whether similar hormone effects could be detected at physiological levels of ER, the expression of the collagenase promoter in cells that express endogenous ER was examined.
# [6] = tested on: human ER at the AP-1 site of the collagenase promoter (coll73); test: Coll73-LUC luciferase reporter (collagenase promoter with AP-1 site) in cells transfected with human ER expression vector HEO; format: cell-based; conditions: for Coll73 Luciferase Activity: relative to no ER; for half maximal dose relative to that for estrogen, induction of coll73-LUC: HeLa cells, 5 μg ER expression vector, FIG. 3B
# Method: All reporter genes described below have been modified by digestion with EcoR I and Ndel to remove a AP-I site in the backbone of pUG. […] Coll73-LUC was constructed by cloning a BamHI/Pvull fragment, that spanned the luciferase transcription unit, from pMG3 into coll73, which had been digested with BamHI and SmaI to remove the CAT transcription unit.
# as §2, §3
# In each case, the cells were transfected with different amounts of the human ER expression vector HEO to determine the optimal response.
# [7] = tested on: ER at the AP-1 site of the collagenase promoter; test: Collagenase promoter reporter in cells that express endogenous ER (Ishikawa, MCF-7, ZR-75-1); format: cell-based; conditions: for activation of the collagenase promoter (coll73-CAT) / induction of the collagenase promoter (coll73-LUC): Ishikawa cells; for activation of the collagenase promoter (coll73-CAT): endogenous receptor, FIG. 4A; for induction of the collagenase promoter (coll73-LUC): receptor levels raised by transfection
# Method: Left panel, coll73-CAT response with endogenous ER contrasted with the response of an ERE regulated reporter, ERE-coll60CAT. Right panel, coll73-LUC response with 3 μg co-transfected expression vector for human ER. Averages of three individual experiments are shown. […] A single representative experiment with triplicate hormone treatments is shown.
# as §4
# [8] = CEF (fibroblast), no hormone, saturating hormone
# [9] = CHO (ovary), no hormone, saturating hormone
# [10] = CV-1 (kidney), no hormone, saturating hormone
# [11] = F9 (teratocarcinoma), no hormone, unliganded ER gave 3.2
# [12] = HELA (cervix), no hormone = 1, ICI 1 μM, tamoxifen 5 μM, estradiol 100 nM
# [13] = HEP G2 (liver), no hormone, saturating hormone
# [14] = MDA453 (breast), no hormone, saturating hormone
# [15] = NIH 3T3 (fibroblast), no hormone, saturating hormone
# [16] = SHM (myometrium), no hormone, saturating hormone
# [17] = SY5Y (neuroblastoma), no hormone, saturating hormone
compound,measurement,setting,value
Nc1ncc2[nH]cnc2n1 [2-aminopurine],inhibition of hormone action at AP-1 sites,[1],inhibit hormone action at AP-1 sites
same,inhibition of the activation of AP-1 activity by HE15,[2],inhibit
CC/C(=C(\c1ccccc1)c1ccc(OCCN(C)C)cc1)c1ccc(O)cc1 [4′-hydroxytamoxifen],MCF-7 cell invasion activity of a re-constituted basement membrane,MCF-7 cell,stimulated
Nc1nc2nc[nH]c2c(=S)[nH]1 [6-thioguanine],inhibition of hormone action at AP-1 sites,[1],inhibit hormone action at AP-1 sites
same,inhibition of the activation of AP-1 activity by HE15,[2],inhibit
O=S(=O)(NCCNC/C=C/c1ccc(Br)cc1)c1cccc2cnccc12 [H89],inhibition of the activation of AP-1 activity by HE15,[2],did not
"CCCCN(C)C(=O)CCCCCCCCCC[C@@H]1Cc2cc(O)ccc2[C@H]2CC[C@]3(C)[C@@H](O)CC[C@H]3[C@H]12 [ICI 164,384]","activation of transcription, collagenase AP-1 site upstream of the herpes virus tk promoter",[3],able to activate transcription
same,activity at classical EREs,ER at classical ERE; range of cell types of Table I (data not shown),pure antagonist
same,inhibition of the series 4 estrogenic activity,[4],inhibit the estrogenic activity of all the series 4 compounds
same,expression of ERE-coll60,[5],neither ICI nor tamoxifen activated
same,Coll73 Luciferase Activity,[6]; [8],3.2
same,Coll73 Luciferase Activity,[6]; [9],1.8
same,Coll73 Luciferase Activity,[6]; [10],3.1
same,Coll73 Luciferase Activity,[6]; [11],2.4
same,Coll73 Luciferase Activity,[6]; [12],3.7
same,Coll73 Luciferase Activity,[6]; [13],5.2
same,"half maximal dose relative to that for estrogen, induction of coll73-LUC",[6],about 10 times
same,Coll73 Luciferase Activity,[6]; [14],1.1
same,Coll73 Luciferase Activity,[6]; [15],3.0
same,Coll73 Luciferase Activity,[6]; [16],1.9
same,Coll73 Luciferase Activity,[6]; [17],2.3
same,MCF-7 cell invasion activity of a re-constituted basement membrane,MCF-7 cell,blocked
same,activation of the collagenase promoter (coll73-CAT),[7],usually inactive
same,induction of the collagenase promoter (coll73-LUC),[7],inductions became detectable
O=c1c(-c2ccc(O)cc2)coc2cc(O)cc(O)c12 [genistein],inhibition of hormone action at AP-1 sites,[1],inhibit hormone action at AP-1 sites
same,inhibition of the activation of AP-1 activity by HE15,[2],inhibit
CC/C(=C(\c1ccccc1)c1ccc(OCCN(C)C)cc1)c1ccccc1 [tamoxifen],"activation of transcription, collagenase AP-1 site upstream of the herpes virus tk promoter",[3],able to activate transcription
same,"activation of the collagenase promoter (coll517, coll73)","[3]; transiently expressed human ER, FIG. 2A",more potent an activator than estrogen
same,"inductions at classical EREs, % of estrogen",ER at classical ERE; CEF cells,30%
same,"inductions at classical EREs, % of estrogen",ER at classical ERE; CV-1 cells,30%
same,inductions of ERE-coll60 activity relative to those obtained with estrogen,"ER at classical ERE; HeLa cells, and most other cases",less than 3%
same,"inductions at classical EREs, % of estrogen",ER at classical ERE; MDA453 cells,30%
same,expression of ERE-coll60,[5],neither ICI nor tamoxifen activated
same,Coll73 Luciferase Activity,[6]; [8],2.2
same,Coll73 Luciferase Activity,[6]; [9],2.2
same,Coll73 Luciferase Activity,[6]; [10],5.3
same,Coll73 Luciferase Activity,[6]; [11],1.1
same,Coll73 Luciferase Activity,[6]; [12],7.4
same,Coll73 Luciferase Activity,[6]; [13],6.5
same,"half maximal dose relative to that for estrogen, induction of coll73-LUC",[6],~100 times
same,Coll73 Luciferase Activity,[6]; [14],2.1
same,Coll73 Luciferase Activity,[6]; [15],3.1
same,Coll73 Luciferase Activity,[6]; [16],2.2
same,Coll73 Luciferase Activity,[6]; [17],2.1
same,activation of the collagenase promoter (coll73-CAT),[7],activated
same,induction of the collagenase promoter (coll73-LUC),[7],inductions became larger
same,activation of the collagenase promoter,"[7]; MCF-7 cells, endogenous ER, FIG. 4B",not tamoxifen
same,activation of the collagenase promoter,[7]; ZR-75-1 cells,The same pattern occurred
calphostin c,inhibition of the activation of AP-1 activity by HE15,[2],did not
